Consider 21 compounds from patent EP2173340B1, “METHODS OF ENHANCING COGNITIVE FUNCTION USING NON-PEPTIDIC COMPOUNDS” (Acumen Pharmaceuticals, Inc., priority 2007, dated 2009).

Broadly, the IC50 is the point on the concentration scale where inhibition reaches its midpoint.

In one experiment the target is T1, Aβ1-42 (Homo sapiens, UniProt P05067).
T1 construct: containing 0.2 µM FITC-Aβ(1-42) and 0.8 µM Aβ(1-42)
Nature of the experiment: FRET assay of Aβ1-42 oligomer (ADDL) formation. The format is biochemical. Particulars: for IC50: assay of Example 1, 0.2 µM FITC-Aβ(1-42) and 0.8 µM Aβ(1-42), 100 mM MgCl2, pH 8.0, 37°C. From the text: Fluorescence (or Förster) Resonance Energy Transfer (FRET) is a distance-dependent, non-radiative transfer of energy in which the de-excitation of one fluorophore (donor) is coupled to excitation of another fluorophore (acceptor). FRET occurs if (1) the quantum of energy emitted by a donor fluorophore corresponds to an acceptor fluorophore's excitation energy, (2) the orientations of donor and acceptor transition dipoles are nearly parallel and (3) the donor fluorescent emission spectrum overlaps the acceptor absorption spectrum.
In this assay, Aβ1-42 oligomer formation is monitored by FRET using N-terminal conjugates of fluorescein-Aβ1-42 as both the donor and acceptor fluorophore (fluorescein-fluorescein Ro∼45 Å). […] Inhibition of Aβ1-42 assembly is observed as the absence or attenuation of fluorescein quenching.
FRET and FP assays are performed in 384-well Coming Non-Binding Surface, black, opaque microtiter plates, and the assay buffer consists of 50 mM MOPS-Tris (pH 8.0) with 100 mM MgCl2. […] ADDL assembly is monitored on a Tecan GENios Pro plate reader, exciting at a wavelength of 485 nm and detecting emission at a wavelength of 515 nm. Kinetic traces are collected by recording fluorescence intensity and polarization readings every five minutes over about three to about a six-hour time course. […] Positive control reactions contain all buffer components in the absence of added small molecule or antibody reagents. […]

The target of another experiment is T2, Aβ1-42 ADDLs (Homo sapiens, UniProt P05067).
T2 construct: Synthetic Aβ1-42 powder was dissolved in 1,1,1,3,3,3 hexafluorisopropanol (HFIP)
T2 sequence (P05067 672-713 limits assumed): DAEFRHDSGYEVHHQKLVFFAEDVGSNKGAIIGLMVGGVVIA
Nature of the experiment: Alternating Lever Cyclic Ratio (ALCR) rat model. Particulars: for Approach Errors Mean / Perseveration Errors Mean: 20 µl via cannula aimed at lateral ventricle, tested about 3 hours following injection, base line error rate equalized to 1.00. The format is in vivo. Here is the method: Preparations of Aβ1-42 ADDLs and a potential therapeutic compounds under the Alternating Lever Cyclic Ratio (ALCR) rat model of AD were tested. This highly sensitive model has been able to detect cognitive deficits due to direct injection of cell-derived Aβ oligomers into rat brain. In this study, a direct injection of ADDLs made from synthetic Aβ1-42 and a putative therapeutic compound under the ALCR procedure were tested.
The ALCR test has proven to be much more sensitive than previously published methods for measuring drug effects on cognitive function. In this task, rats must learn a complex sequence of lever-pressing requirements in order to earn food reinforcement in a two-lever experimental chamber. Subjects must alternate between two levers by switching to the other lever after pressing the first lever enough to get food reward. The exact number of presses required for each food reward changes, first increasing from 2 responses per food pellet up to 56 presses per food pellet, then decreasing back to 2 responses per pellet. Intermediate values were based on the quadratic function, x^2 - x. One cycle was an entire ascending and descending sequence of these lever press requirements (e.g., 2, 6, 12, 20, 30, 42, 56, 56, 42, 30, 20, 12, 6, and 2 presses per food reward). Six such full cycles were presented during each daily session.
Synthetic Aβ1-42 powder was dissolved in 1,1,1,3,3,3 hexafluorisopropanol (HFIP) to afford a solution of Aβ1-42 in HFIP of about 1 mM and allowed to incubate at ambient temperature for about 1 h. The resulting solution was chilled on ice for about 5-10 min, then aliquoted into eppendorf tubes to provide about 50 µl of solution per tube. The tubes were then placed in a chemical fume hood and allowed to stand overnight to allow the HFIP to evaporate under a slow stream of nitrogen. To removed final traces of HFIP, the tubes were subjected to two SpeedVac cycles of 15 min at room temperature and about 15 to 25 in Hg of vacuum. The resulting films of monomerized Aβ1-42 peptide were stored over desiccant at -80 °C until used.
A tube of monomerized Aβ1-42 peptide was warmed to room temperature and the Aβ1-42 peptide was dissolved in anhydrous DMSO to afford a peptide stock DMSO solution containing about 10 µM to about 100 µM Aβ1-42 peptide in DMSO.
2 µl of a 20 mM stock solution of test compound in anhydrous DMSO is added to 998 µl of neural basal media (phenol red free, Gibco 12348-017) to give a compound neural basal media solution containing 40 µM of test compound in neural basal media.
For the Aβ1-42 peptide only treatment, peptide stock DMSO solution is added to 37 °C neural basal to obtain the requisite Aβ1-42 peptide monomer concentration, provided that the maximum concentration of DMSO is 1% or less, and the tube is vortexed for 30 to 60 seconds, spun down briefly in a microfuge and incubated at 37 °C for 15 min prior to the start of injections.
For the Aβ1-42 peptide plus test compound treatment, peptide stock DMSO solution is added to 37 °C compound neural basal media solution to obtain the requisite Aβ1-42 peptide monomer concentration, provided that the maximum concentration of DMSO is 1% or less, and the tube is vortexed for 30 to 36 seconds, spun down briefly in a microfuge and incubated at 37 °C for 15 min prior to the start of injections.
For control injections, compound neural basal media solution is incubated at 37 °C for 15 min prior to the start of injections.
Rats: Rats were trained under ALCR until their error rates were stable. Once the rats were placed upon the final ALCR procedure, training sessions were conducted 7 days each week until the end of the study.
Surgery: All rats received a single 28 ga cannula, which was permanently affixed to the skull, and aimed at the lateral ventricle. Half the rats received cannula in the right ventricle and half received cannula in the left ventricle. Rats were allowed 5 days to recover from surgery before training resumed. […]

Where [1] appears, read: compound combined with Aβ1-42 ADDLs.

T1 sequence (P05067 672-713 limits assumed): as above

Turning to `NCCCS(=O)(=O)O` [Alzhemed, 3-amino-1-propanesulfonic acid, reference compound], the “inhibition of Aβ1-42 monomer assembly into Aβ oligomers” value on Aβ1-42 (standard FRET assay conditions of Example 1, comparative example, FIG 2) is “inability”. As for `O=C(C/C(=N/NC(=O)c1ccccc1O)C(F)(F)F)c1cccs1` [Compound 2, 2-Hydroxy-benzoic acid [3-oxo-3-thiophen-2-yl-1-trifluoromethyl-prop-(Z)-ylidene]-hydrazide], the IC50 at Aβ1-42 worked out at 26 µM.

`O=C(C/C(=N/NC(=O)c1ccccc1O)C(F)(F)F)c1ccco1` [Compound 3, 2-Hydroxy-benzoic acid [3-oxo-3-furan-2-yl-1-trifluoromethyl-prop-(Z)-ylidene)-hydrazide] returned an IC50 against Aβ1-42 of 13.5 µM. With `CCOC(=O)c1c(NC(=O)C(=O)N/N=C/c2ccccc2O)sc2c1CCC(C)C2` (centres unmarked) [Compound 7, 2-{[1-(2-Hydroxyphenyl)-meth-(E)-ylidene-hydrazinooxalyl]-amino} -6-methyl-4,5,6,7-tetrahydro-benzo[b]thiophene-3-carboxylic acid ethyl ester], on Aβ1-42 (1 mM Aβ1-42 total monomer, 100 mM MgCl2, compound ranging from 0.05 to 3 mM, FIG. 1), the “inhibition of Aβ1-42 oligomer assembly” value is recorded as “dose dependent inhibition”. Turning to `CCC1=NN(C(=O)C(=O)Nc2ccccc2OC)C(O)(C(F)(F)F)C1` (centres unmarked) [Compound 8, 2-(3-ethyl-5-hydroxy-5-(trifluoromethyl)-4,5-dihydro-1H-pyrazol-1-yl)-N-(2-methoxyphenyl)-2-oxoacetamide], at Aβ1-42, the concentration for half-maximal inhibition (IC50) turned out to be 7 µM.

`CCCC1=NN(C(=O)C(=O)Nc2ccccc2OC)C(O)(C(F)(F)F)C1` (centres unmarked) [Compound 9, 2-(5-hydroxy-3-propyl-5-(trifluoromethyl)-4,5-dihydro-1H-pyrazol-1-yl)-N-(2-methoxyphenyl)-2-oxoacetamide] displayed an IC50 on Aβ1-42 of 6.4 µM. On Aβ1-42, `COc1ccccc1NC(=O)C(=O)N1N=C(C(C)C)CC1(O)C(F)(F)F` (centres unmarked) [Compound 10, 2-(5-hydroxy-3-isopropyl-5-(trifluoromethyl)-4,5-dihydro-1H-pyrazol-1-yl)-N-(2-methoxyphenyl)-2-oxoacetamide] displayed a half-inhibitory concentration (IC50) of 24.3 µM. On the same count and under the same terms, under `CCCC1=NN(C(=O)c2ccccc2O)C(O)(C(F)(F)F)C1` (centres unmarked) [Compound 12, (5-hydroxy-3-propyl-5-(trifluoromethyl)-4,5-dihydro-1H-pyrazol-1-yl)(2-hydroxyphenyl)methanone] stands 8.5 µM. `CCC1=NN(C(=O)C(=O)Nc2ccc(Br)cc2)C(O)(C(F)(F)F)C1` (centres unmarked) [Compound 13, N-(4-bromophenyl)-2-(3-ethyl-5-hydroxy-5-(trifluoromethyl)-4,5-dihydro-1H-pyrazol-1-yl)-2-oxoacetamide] registered an IC50 at Aβ1-42 of 17 µM.

On to `CCCC1=NN(C(=O)C(=O)NCCc2ccccc2)C(O)(C(F)(F)F)C1` (centres unmarked) [Compound 14, 2-(5-hydroxy-3-propyl-5-(trifluoromethyl)-4,5-dihydro-1H-pyrazol-1-yl)-2-oxo-N-phenethylacetamide], for which the IC50 at Aβ1-42 is 34.4 µM.

Consider `CCCC1=NN(C(=O)C(=O)Nc2ccc(Br)cc2)C(O)(C(F)(F)F)C1` (centres unmarked) [Compound 15, N-(4-bromophenyl)-2-(5-hydroxy-3-propyl-5-(trifluoromethyl)-4,5-dihydro-1H-pyrazol-1-yl)-2-oxoacetamide], for which the half-maximal inhibitory concentration (IC50) at Aβ1-42 was found to be 7.8 µM. Take `CCCCC1=NN(C(=O)C(=O)NCCc2ccccc2)C(O)(C(F)(F)F)C1` (centres unmarked) [Compound 16, 2-(3-butyl-5-hydroxy-5-(trifluoromethyl)-4,5-dihydro-1H-pyrazol-1-yl)-2-oxo-N-phenethylacetamide]: the IC50 on Aβ1-42 was 38.8 µM. `CC(C)CC1=NN(C(=O)C(=O)NCCc2ccccc2)C(O)(C(F)(F)F)C1` (centres unmarked) [Compound 17, 2-(5-hydroxy-3-isobutyl-5-(trifluoromethyl)-0,5-dihydro-1H-pyrazol-1-yl)-2-oxo-N-phenethylacetamide] gave an IC50 on Aβ1-42 of 41.3 µM. Compound `CCCCCC1=NN(C(=O)C(=O)Nc2ccc(Br)cc2)C(O)(C(F)(F)F)C1` (centres unmarked) [Compound 18, N-(4-bromophenyl)-2-(5-hydroxy-3-pentyl-5-(trifluoromethyl)-4,5-dihydro-1H-pyrazol-1-yl)-2-oxoacetamide] returned an IC50 against Aβ1-42 of 11.6 µM. The same measure, in the same setting: under `CCCCCC1=NN(C(=O)C(=O)Nc2ccc(OC)cc2)C(O)(C(F)(F)F)C1` (centres unmarked) [Compound 19, 2-(5-hydroxy-3-pentyl-5-(trifluoromethyl)-4,5-dihydro-1H-pyrazol-1-yl)-N-(4-methoxyphenyl)-2-oxoacetamide] stands 8.7 µM; under `CC(C)CCC1=NN(C(=O)C(=O)NCCc2ccccc2)C(O)(C(F)(F)F)C1` (centres unmarked) [Compound 20, 2-(5-hydroxy-3-isopentyl-5-(trifluoromethyl)-4,5-dihydro-1H-pyrazol-1-yl)-2-oxo-N-phenethylacetamide], 17 µM; under `CCCCCCC1=NN(C(=O)C(=O)Nc2ccc(OC)cc2)C(O)(C(F)(F)F)C1` (centres unmarked) [Compound 22, 2-(3-hexyl-5-hydroxy-5-(trifluoromethyl)-4,5-dihydro-1H-pyrazol-1-yl)-N-(4-methoxyphenyl)-2-oxoacetamide], 8.2 µM.

Compound `COc1ccccc1NC(=O)C(=O)N1N=C(C2CCCCC2)CC1(O)C(F)(F)F` (centres unmarked) [Compound 23, 2-(3-cyclohexyl-5-hydroxy-5-(trifluoromethyl)-4,5-dihydro-1H-pyrazol-1-yl)-N-(2-methoxyphenyl)-2-oxoacetamide] had an IC50 against Aβ1-42 of 29.1 µM. On to `O=C(N/N=C/c1c(O)ccc2ccccc12)c1ccccc1O` [Compound 24, (E)-2-hydroxy-N'-((2-hydroxynaphthalen-1-yl)methylene) benzohydrazide], for which, on Aβ1-42 ADDLs (combined with the requisite concentration of Aβ1-42 ADDLs, result in words), the “increase in Perseveration Errors” value is “eliminated the increase in Perseveration Errors”. Moreover, on Aβ1-42 ADDLs (setting [1]), the “Approach Errors Mean” value is 1.00 and the “Perseveration Errors Mean” value was 0.92. The error rates result at Aβ1-42 ADDLs (given alone, result in words) was “did not increase error rates”. Further, on Aβ1-42 ADDLs (injectate given alone), the “Approach Errors Mean” value was found to be 0.96 and the “Perseveration Errors Mean” value was found to be 0.95. `O=C(N/N=C/c1cc(Br)cc(Br)c1O)c1ccccc1O` [Compound 26, (E)-N'-(3,5-dibromo-2-hydroxybenzylidene)-2-hydroxybenzohydrazide] gave a half-maximal inhibitory concentration (IC50) at Aβ1-42 of 5.8 µM. On the same count and under the same terms, under `O=C(N/N=C/c1cc(Br)ccc1O)c1ccccc1O` [Compound 27, (E)-N'-(5-bromo-2-hydroxybenzylidene)-2-hydroxybenzohydrazide] stands 19.3 µM.
